Assays:
Ba/F3 LMNA-NTRK1 cells = test: Assay for inhibiting the proliferation of Ba/F3 LMNA-NTRK1 cells (CCK-8); assay type: cell-based; details: Mus musculus, BaF3
Outline: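 Viability was read as absorbance at 450 nm following 1–2 h CCK-8 incubation at 37 °C, relative to control and blank wells.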

Ba/F3-AXL cells = test: Assay for inhibiting the proliferation of Ba/F3-AXL cells (CCK-8); assay type: cell-based; details: 72 hours of incubation, medium with 100 ng/mL hGas6, CCK-8
Protocol: The values were then imported into Graphpad Prism 5 software for curve fitting, and IC50 was calculated.

c-MET kinase = c-MET kinase (Homo sapiens (Human), UniProt P08581); test: Assay of small molecular compounds for inhibiting the activity of c-MET kinase (LANCE TR-FRET); assay type: biochemical; details: read-out: CMET IC50
Outline: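 Eleven final concentrations from 2500 nM down to 0.042 nM, in 4% DMSO, were tested against human c-MET (2× stock 2 nM), with compound and enzyme premixed for 5 min. The phosphorylation reaction used 4× stock of 400 nM ULight-JAK-1 peptide and 40 μM ATP for 60 min at room temperature, then stop and detection steps. TR-FRET percent inhibition against positive and negative controls gave the IC50.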

EBC1 cells = test: Assay for inhibiting the proliferation of EBC1 cells (CCK-8); assay type: cell-based; details: Homo sapiens, EBC-1
Outline: (§1)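 Cells seeded in 96-well plates overnight, then exposed 72 h to 9 three-fold dilutions of compound (0.25% DMSO final). Viability by CCK-8 (1-2 h at 37° C., OD 450 nm), survival normalized to untreated and cell-free blanks; IC50 by curve fitting.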

MHCC97H cells = test: Assay for inhibiting the proliferation of MHCC97H cells (CCK-8); assay type: cell-based; details: Homo sapiens
Outline: as §1

c-MET kinase, sequence (P08581 25-1390): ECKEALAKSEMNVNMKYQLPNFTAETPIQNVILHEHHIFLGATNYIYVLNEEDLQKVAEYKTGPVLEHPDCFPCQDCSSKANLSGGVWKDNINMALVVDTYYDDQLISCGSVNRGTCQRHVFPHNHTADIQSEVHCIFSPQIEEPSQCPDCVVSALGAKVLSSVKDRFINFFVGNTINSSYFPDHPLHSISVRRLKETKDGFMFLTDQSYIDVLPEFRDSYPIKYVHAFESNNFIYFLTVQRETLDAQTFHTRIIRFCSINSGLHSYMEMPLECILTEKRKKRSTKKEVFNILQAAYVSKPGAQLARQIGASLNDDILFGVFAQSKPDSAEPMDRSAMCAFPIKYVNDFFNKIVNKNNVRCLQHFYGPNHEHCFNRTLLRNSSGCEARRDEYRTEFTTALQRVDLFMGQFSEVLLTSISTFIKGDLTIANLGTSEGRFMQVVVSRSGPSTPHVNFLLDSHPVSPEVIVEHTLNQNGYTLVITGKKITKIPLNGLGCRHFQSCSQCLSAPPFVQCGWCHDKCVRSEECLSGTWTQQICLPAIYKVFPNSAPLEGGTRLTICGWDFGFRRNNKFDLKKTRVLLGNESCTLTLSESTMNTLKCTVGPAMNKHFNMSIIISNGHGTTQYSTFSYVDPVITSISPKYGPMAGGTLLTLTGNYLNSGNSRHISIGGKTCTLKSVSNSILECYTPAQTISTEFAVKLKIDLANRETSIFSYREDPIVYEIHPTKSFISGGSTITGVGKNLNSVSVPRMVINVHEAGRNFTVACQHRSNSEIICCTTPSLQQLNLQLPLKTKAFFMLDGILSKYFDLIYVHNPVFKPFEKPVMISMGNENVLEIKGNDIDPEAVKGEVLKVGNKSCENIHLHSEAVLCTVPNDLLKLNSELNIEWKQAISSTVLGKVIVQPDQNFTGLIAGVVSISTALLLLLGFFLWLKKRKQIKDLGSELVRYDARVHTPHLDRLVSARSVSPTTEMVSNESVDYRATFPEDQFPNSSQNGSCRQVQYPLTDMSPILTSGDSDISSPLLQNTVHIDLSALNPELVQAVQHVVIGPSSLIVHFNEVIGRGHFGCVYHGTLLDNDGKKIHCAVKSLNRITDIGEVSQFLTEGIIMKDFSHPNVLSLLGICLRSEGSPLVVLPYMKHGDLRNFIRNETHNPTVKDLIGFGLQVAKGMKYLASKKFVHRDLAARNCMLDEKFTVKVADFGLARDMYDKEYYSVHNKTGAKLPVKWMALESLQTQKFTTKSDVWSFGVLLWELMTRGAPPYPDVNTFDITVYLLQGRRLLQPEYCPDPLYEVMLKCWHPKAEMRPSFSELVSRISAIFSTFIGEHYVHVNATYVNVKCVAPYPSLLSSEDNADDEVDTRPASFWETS

| SMILES | IC50 (Ba/F3 LMNA-NTRK1 cells) [nM] | IC50 (Ba/F3-AXL cells) [nM] | IC50 (c-MET kinase) [nM] | IC50 (EBC1 cells) [nM] | IC50 (MHCC97H cells) [nM] |
| --- | --- | --- | --- | --- | --- |
| CCOc1ccn(-c2ccc(F)cc2)c(=O)c1C(=O)Nc1ccc(Oc2ccnc3cc(OCCCN4CCN(C)CC4)c4c(c23)OCCO4)c(F)c1 [Example 49, N-(3-fluoro-4-((5-(3-(4-methylpiperazin-1-yl)propoxy)-2,3-dihydro-[1,4]dioxino[2,3-f]quinolin-10-yl)oxy)phenyl)-1-(4-fluorophenyl)-4-ethoxy-2-oxo-1,2-dihydropyridine-3-carboxamide] | < 50 | < 50 | ≤ 50 | ≤ 50 | ≤ 50 |
| CCOc1ccn(-c2ccc(F)cc2)c(=O)c1C(=O)Nc1ccc(Oc2ccnc3cc(OCCCN4CCN(C(C)=O)CC4)c4c(c23)OCCO4)c(F)c1 [Example 50, N-(4-((5-(3-(4-acetyl-piperazin-1-yl)propoxy)-2,3-dihydro-[1,4]dioxino[2,3-f]quinolin-10-yl)oxy)-3-fluorophenyl)-4-ethoxy-1-(4-fluorophenyl)-2-oxo-1,2-dihydropyridine-3-carboxamide] | < 50 | < 50 | ≤ 50 | ≤ 50 | ≤ 50 |
| CCOc1ccn(-c2ccc(F)cc2)c(=O)c1C(=O)Nc1ccc(Oc2ccnc3cc(OCCCN4CCS(=O)(=O)CC4)c4c(c23)OCCO4)c(F)c1 [Example 51, N-(4-((5-(3-(1,1-dioxidothiomorpholino)propoxy)-2,3-dihydro-[1,4]dioxino[2,3-f]quinolin-1 0-yl)oxy)-3-fluorophenyl)-4-ethoxy-1-(4-fluorophenyl)-2-oxo-1,2-dihydropyridine-3-carboxamide] | < 50 | < 50 | ≤ 50 | ≤ 50 | ≤ 50 |
| CCOc1ccn(-c2ccc(F)cc2)c(=O)c1C(=O)Nc1ccc(Oc2ccnc3cc(OCCO)c4c(c23)OCCO4)c(F)c1 [Example 53, N-(4-((5-(2-hydroxyethoxy)-2,3-dihydro-[1,4]dioxino[2,3-f]quinolin-10-yl)oxy)-3-fluorophenyl)-4-ethoxy-1-(4-fluorophenyl)-2-oxo-1,2-dihydropyridine-3-carboxamide] | < 50 | < 50 | ≤ 50 | ≤ 50 | ≤ 50 |
| CCOc1ccn(-c2ccc(F)cc2)c(=O)c1C(=O)Nc1ccc(Oc2ccnc3cc(OCCCO)c4c(c23)OCCO4)c(F)c1 [Example 54, N-(4-((5-(3-hydroxypropoxy)-2,3-dihydro-[1,4]dioxino[2,3-f]quinolin-10-yl)oxy)-3-fluorophenyl)-4-ethoxy-1-(4-fluorophenyl)-2-oxo-1,2-dihydropyridine-3-carboxamide] | < 50 | < 50 | ≤ 50 | ≤ 50 | ≤ 50 |
| CCOc1ccn(-c2ccc(F)cc2)c(=O)c1C(=O)Nc1ccc(Oc2ccnc3cc(OCCCOC)c4c(c23)OCCO4)c(F)c1 [Example 55, N-(4-((5-(3-methoxypropoxy)-2,3-dihydro-[1,4]dioxino[2,3-f]quinolin-10-yl)oxy)-3-fluorophenyl)-4-ethoxy-1-(4-fluorophenyl)-2-oxo-1,2-dihydropyridine-3-carboxamide] | < 50 | < 50 | ≤ 50 | ≤ 50 | ≤ 50 |
| CCOc1ccn(-c2ccc(F)cc2)c(=O)c1C(=O)Nc1ccc(Oc2ccnc3cc(OCC#N)c4c(c23)OCCO4)c(F)c1 [Example 56, N-(4-((5-(cyanomethoxy)-2,3-dihydro-[1,4]dioxino[2,3-f]quinolin-10-yl)oxy)-3-fluorophenyl)-4-ethoxy-1-(4-fluorophenyl)-2-oxo-1,2-dihydropyridine-3-carboxamide] | < 50 | < 50 | ≤ 50 | ≤ 50 | ≤ 50 |
| CCOc1ccn(-c2ccc(F)cc2)c(=O)c1C(=O)Nc1ccc(Oc2ccnc3cc(OCCCC#N)c4c(c23)OCCO4)c(F)c1 [Example 57, N-(4-((5-(3-cyanopropoxy)-2,3-dihydro-[1,4]dioxino[2,3-f]quinolin-10-yl)oxy)-3-fluorophenyl)-4-ethoxy-1-(4-fluorophenyl)-2-oxo-1,2-dihydropyridine-3-carboxamide] | < 50 | < 50 | ≤ 50 | ≤ 50 | ≤ 50 |
| CCOc1cc2nccc(Oc3ccc(NC(=O)c4c(OCC)ccn(-c5ccc(F)cc5)c4=O)cc3F)c2c2c1OCCO2 [Example 62, N-(4-((5-ethoxy-2,3-dihydro-[1,4]dioxino[2,3-f]quinolin-10-yl)oxy)-3-fluorophenyl)-4-ethoxy-1-(4-fluorophenyl)-2-oxo-1,2-dihydropyridine-3-carboxamide] | < 50 | < 50 | ≤ 50 | ≤ 50 | ≤ 50 |
| CCOc1ccn(-c2ccc(F)cc2)c(=O)c1C(=O)Nc1ccc(Oc2ccnc3cc(OC4COC4)c4c(c23)OCCO4)c(F)c1 [Example 64, N-(4-((5-((oxetan-3-yl)oxy)-2,3-dihydro-[1,4]dioxino[2,3-f]quinolin-10-yl)oxy)-3-fluorophenyl)-4-ethoxy-1-(4-fluorophenyl)-2-oxo-1,2-dihydropyridine-3-carboxamide] | 50 to 200 | < 50 | ≤ 50 | 50 to 200 | 50 to 200 |
| CCOc1ccn(-c2ccc(F)cc2)c(=O)c1C(=O)Nc1ccc(Oc2ccnc3cc(OC4CCOC4)c4c(c23)OCCO4)c(F)c1 (stereo not shown) [Example 65, N-(4-((5-((tetrahydrofuran-3-yl)oxy)-2,3-dihydro-[1,4]dioxino[2,3-f]quinolin-10-yl)oxy)-3-fluorophenyl)-4-ethoxy-1-(4-fluorophenyl)-2-oxo-1,2-dihydropyridine-3-carboxamide] | 50 to 200 | < 50 | ≤ 50 | ≤ 50 | ≤ 50 |
| CCOc1ccn(-c2ccc(F)cc2)c(=O)c1C(=O)Nc1ccc(Oc2ccnc3cc(OC4CCOCC4)c4c(c23)OCCO4)c(F)c1 [Example 66, N-(4-((5-((tetrahydropyran-4-yl)oxy)-2,3-dihydro-[1,4]dioxino[2,3-f]quinolin-10-yl)oxy)-3-fluorophenyl)-4-ethoxy-1-(4-fluorophenyl)-2-oxo-1,2-dihydropyridine-3-carboxamide] | 50 to 200 | < 50 | ≤ 50 | ≤ 50 | ≤ 50 |
| CCOc1ccn(-c2ccc(F)cc2)c(=O)c1C(=O)Nc1ccc(Oc2ccnc3cc(OCCCN4CCC(C)(C)CC4)c4c(c23)OCCO4)c(F)c1 [Example 67, N-(4-((5-(3-(4,4-dimethylpiperidin-1-yl)propoxy)-2,3-dihydro-[1,4]dioxino[2,3-f]quinolin-10-yl)oxy)-3-fluorophenyl)-4-ethoxy-1-(4-fluorophenyl)-2-oxo-1,2-dihydropyridine-3-carboxamide] | < 50 | < 50 | ≤ 50 | ≤ 50 | ≤ 50 |
| CCOc1ccn(-c2ccc(F)cc2)c(=O)c1C(=O)Nc1ccc(Oc2ccnc3cc(OCCCN4CCC(C)(N)CC4)c4c(c23)OCCO4)c(F)c1 [Example 68, N-(4-((5-(3-(4-amino-4-methylpiperidin-1-yl)propoxy)-2,3-dihydro-[1,4]dioxino[2,3-f]quinolin-10-yl)oxy)-3-fluorophenyl)-4-ethoxy-1-(4-fluorophenyl)-2-oxo-1,2-dihydropyridine-3-carboxamide] | 200 to 1000 | < 50 | ≤ 50 | ≤ 50 | 200 to 1000 |
| CCOc1ccn(-c2ccc(F)cc2)c(=O)c1C(=O)Nc1ccc(Oc2ccnc3cc(OCCCN4CCC(C)(O)CC4)c4c(c23)OCCO4)c(F)c1 [Example 69, N-(4-((5-(3-(4-hydroxy-4-methylpiperidin-1-yl)propoxy)-2,3-dihydro-[1,4]dioxino[2,3-f]quinolin-10-yl)oxy)-3-fluorophenyl)-4-ethoxy-1-(4-fluorophenyl)-2-oxo-1,2-dihydropyridine-3-carboxamide] | < 50 | < 50 | ≤ 50 | ≤ 50 | 50 to 200 |
| CCOc1ccn(-c2ccc(F)cc2)c(=O)c1C(=O)Nc1ccc(Oc2ccnc3cc(OCCCN(C)CCOC)c4c(c23)OCCO4)c(F)c1 [Example 70, N-(4-((5-(3-((2-methoxyethyl)(methyl)amino)propoxy)-2,3-dihydro-[1,4]dioxino[2,3-f]quinolin-10-yl)oxy)-3-fluorophenyl)-4-ethoxy-1-(4-fluorophenyl)-2-oxo-1,2-dihydropyridine-3-carboxamide] | < 50 | < 50 | ≤ 50 | ≤ 50 | ≤ 50 |
| CCOc1ccn(-c2ccc(F)cc2)c(=O)c1C(=O)Nc1ccc(Oc2ccnc3cc(OCCCN(C)C4CCC4)c4c(c23)OCCO4)c(F)c1 [Example 71, N-(4-((5-(3-(cyclobutyl(methyl)amino)propoxy)-2,3-dihydro-[1,4]dioxino[2,3-f]quinolin-10-yl)oxy)-3-fluorophenyl)-4-ethoxy-1-(4-fluorophenyl)-2-oxo-1,2-dihydropyridine-3-carboxamide] | < 50 | < 50 | ≤ 50 | ≤ 50 | ≤ 50 |

From US12202835B2, “Substituted aromatic ring-linked dioxinoquinazolines and dioxinoquinolines as kinase inhibitors” (BEIJING SCITECH-MQ PHARMACEUTICALS LIMITED, priority 2018, dated 2025)
